Laboratory results: patent US11477982B2, “2-amino-5-oxyalkyl-pyrimidine derivatives and their use for controlling undesired plant growth” (Bayer CropScience Aktiengesellschaft, priority 2017, dated 2022)

What was measured:
Type in all cases: in vivo
[1] = test system: AMARE: Amaranthus retroflexus; test: Pre-emergence herbicidal effect; conditions: for Herbicidal action against AMARE: pre-emergence; for Herbicidal efficacy against AMARE: Table 4b, pre-emergence as titled, dosage 80 g of a.i./ha
Excerpt: (§1) 1. Pre-Emergence Herbicidal Effect and Crop Plant Compatibility
(§2) Seeds of monocotyledonous and dicotyledonous weed plants and crop plants are placed in plastic or wood fiber pots and covered with soil. The compounds of the invention, formulated in the form of wettable powders (WP) or as emulsion concentrates (EC), are then applied onto the surface of the covering soil as aqueous suspension or emulsion with addition of 0.5% additive at a water application rate of 600 l/ha (converted).
(§3) After the treatment, the pots are placed in a greenhouse and kept under good growth conditions for the trial plants. After about 3 weeks, the effect of the preparations is scored visually in comparison with untreated controls as percentages. For example, 100% activity=the plants have died, 0% activity=like control plants.

HORMU: Hordeum murinum = test: Pre-emergence herbicidal effect; conditions: for Herbicidal action against HORMU: pre-emergence; for Herbicidal efficacy against HORMU: Table 4b, pre-emergence as titled, dosage 80 g of a.i./ha
Excerpt: as §1, §2, §3

PHBPU: Ipomoea purpurea = test: Pre-emergence herbicidal effect; conditions: for Herbicidal efficacy against PHBPU: Table 4a, dosage 20 g of a.i./ha
Excerpt: as §1, §2, §3

[2] = test system: POLCO: Polygonum convolvulus; test: Pre-emergence herbicidal effect; conditions: for Herbicidal efficacy against POLCO: Table 4a, dosage 20 g of a.i./ha
Excerpt: as §1, §2, §3

STEME: Stellaria media [3] = test: Post-emergence herbicidal effect
Description: (§4) 2. Post-Emergence Herbicidal Effect and Crop Plant Compatibility
(§5) Seeds of monocotyledonous and dicotyledonous weeds and crop plants are placed in sandy loam in plastic or wood-fiber pots, covered with soil and cultivated in a greenhouse under controlled growth conditions, 2 to 3 weeks after sowing, the test plants are treated at the one-leaf stage. The compounds of the invention, formulated in the form of wettable powders (WP) or as emulsion concentrates (EC), are then sprayed onto the green parts of the plants as aqueous suspension or emulsion with addition of 0.5% additive at a water application rate of 600 l/ha (converted). After the test plants had been kept in the greenhouse under optimum growth conditions for about 3 weeks, the activity of the preparations is rated visually in comparison to untreated controls. For example, 100% activity=the plants have died, 0% activity=like control plants.

[4] = test system: ABUTH: Abutilon theophrasti; test: Pre-emergence herbicidal effect; conditions: for Herbicidal efficacy against ABUTH: Table 4a, dosage 20 g of a.i./ha
Excerpt: as §1, §2, §3

[5] = test system: ALOMY: Alopecurus myosuroides; test: Pre-emergence herbicidal effect
Excerpt: as §1, §2, §3

[6] = test system: ECHCG: Echinochloa crus-galli; test: Pre-emergence herbicidal effect
Excerpt: as §1, §2, §3

LOLRI: Lolium rigidum = test: Pre-emergence herbicidal effect; conditions: for Herbicidal efficacy against LOLRI: Table 4a, dosage 20 g of a.i./ha
Excerpt: as §1, §2, §3

SETVI: Setaria viridis = test: Pre-emergence herbicidal effect
Excerpt: as §1, §2, §3

AVEFA: Avena fatua = test: Pre-emergence herbicidal effect
Excerpt: as §1, §2, §3

[7] = test system: MATIN: Matricaria inodora; test: Pre-emergence herbicidal effect; conditions: for Herbicidal action against MATIN: pre-emergence, dosage 320 g/ha; for Herbicidal efficacy against MATIN: Table 4b, pre-emergence as titled, dosage 80 g of a.i./ha
Excerpt: as §1, §2, §3

STEME: Stellaria media [8] = test: Pre-emergence herbicidal effect; conditions: for Herbicidal action against STEME: pre-emergence, dosage 320 g/ha; for Herbicidal efficacy against STEME: Table 4b, pre-emergence as titled, dosage 80 g of a.i./ha
Excerpt: as §1, §2, §3

VERPE: Veronica persica = test: Pre-emergence herbicidal effect; conditions: dosage 320 g/ha
Excerpt: as §1, §2, §3

VIOTR: Viola tricolor = test: Pre-emergence herbicidal effect; conditions: dosage 320 g/ha
Excerpt: as §1, §2, §3

[9] = test system: ABUTH: Abutilon theophrasti; test: Post-emergence herbicidal effect; conditions: dosage 320 g/ha
Description: as §4, §5

[10] = test system: AMARE: Amaranthus retroflexus; test: Post-emergence herbicidal effect; conditions: dosage 320 g/ha
Description: as §4, §5

[11] = test system: ECHCG: Echinochloa crus-galli; test: Post-emergence herbicidal effect; conditions: dosage 320 g/ha
Description: as §4, §5

[12] = Table 4a, pre-emergence, dosage 20 g of a.i./ha
[13] = Table 4b, pre-emergence as titled, dosage 80 g of a.i./ha

Cc1ccc2c(c1)[C@H](Nc1ncc(C(C)(C)O)c(N)n1)[C@@H](C)C2 [drawing 6, reference compound]
Herbicidal action against AMARE ([1]; dosage 80 g/ha): 40%
Herbicidal action against HORMU (HORMU: Hordeum murinum; dosage 80 g/ha): 20%
Herbicidal action against PHBPU (PHBPU: Ipomoea purpurea; dosage 80 g/ha): 0%
Herbicidal action against PHBPU (PHBPU: Ipomoea purpurea; dosage 320 g/ha): 0%
Herbicidal action against POLCO ([2]; dosage 80 g/ha): 0%

Cc1ccc2c(c1)[C@H](Nc1ncc([C@H](C)O)c(N)n1)[C@@H](C)C2 (racemic) [drawing 15, reference compound]
Herbicidal action against STEME (STEME: Stellaria media [3]; dosage 80 g/ha): 70%

Cc1cc2c(s1)CCCC2Nc1ncc(C(C)O)c(C)n1 (centres unmarked) [drawing 17, reference compound]
Herbicidal efficacy against ABUTH [4]: 0
Herbicidal efficacy against ALOMY [5, 12]: 0
Herbicidal efficacy against ECHCG [6, 12]: 0
Herbicidal efficacy against LOLRI (LOLRI: Lolium rigidum): 0
Herbicidal efficacy against PHBPU (PHBPU: Ipomoea purpurea): 0
Herbicidal efficacy against POLCO [2]: 20
Herbicidal efficacy against SETVI (SETVI: Setaria viridis; [12]): 20

Cc1ccc2c(c1)[C@H](Nc1ncc(C(C)(C)O)c(C)n1)CCO2 [Example 1.53]
Herbicidal action against ABUTH ([4]; dosage 320 g/ha): 100%
Herbicidal action against ALOMY ([5]; pre-emergence, dosage 320 g/ha): 100%
Herbicidal action against AMARE ([1]; dosage 320 g/ha): 100%
Herbicidal action against AVEFA (AVEFA: Avena fatua; dosage 320 g/ha): 100%
Herbicidal action against ECHCG ([6]; pre-emergence, dosage 320 g/ha): 100%
Herbicidal action against HORMU (HORMU: Hordeum murinum; dosage 320 g/ha): 100%
Herbicidal action against LOLRI (LOLRI: Lolium rigidum; dosage 320 g/ha): 90%
Herbicidal action against MATIN [7]: 100%
Herbicidal action against PHBPU (PHBPU: Ipomoea purpurea; dosage 320 g/ha): 100%
Herbicidal action against POLCO ([2]; dosage 320 g/ha): 100%
Herbicidal action against SETVI (SETVI: Setaria viridis; pre-emergence, dosage 320 g/ha): 100%
Herbicidal action against STEME (STEME: Stellaria media [8]): 100%
Herbicidal action against VERPE (VERPE: Veronica persica): 100%
Herbicidal action against VIOTR (VIOTR: Viola tricolor): 100%
Herbicidal action against ABUTH [9]: 90%
Herbicidal action against AMARE [10]: 90%
Herbicidal action against ECHCG [11]: 100%
Herbicidal action against STEME (STEME: Stellaria media [3]; dosage 320 g/ha): 90%

Cc1cc2c(s1)CCCC2Nc1ncc(C(C)(C)O)c(C)n1 (centres unmarked) [drawing 16, reference compound]
Herbicidal efficacy against ABUTH [4]: 80
Herbicidal efficacy against ALOMY [5, 12]: 30
Herbicidal efficacy against ECHCG [6, 12]: 30
Herbicidal efficacy against LOLRI (LOLRI: Lolium rigidum): 0
Herbicidal efficacy against PHBPU (PHBPU: Ipomoea purpurea): 0
Herbicidal efficacy against POLCO [2]: 20
Herbicidal efficacy against SETVI (SETVI: Setaria viridis; [12]): 80

Cc1cc2c(s1)CCCC2Nc1ncc(C(C)O)c(C)n1 (centres unmarked) [drawing 19, reference compound]
Herbicidal efficacy against ALOMY [5, 13]: 10
Herbicidal efficacy against AMARE [1]: 30
Herbicidal efficacy against ECHCG [6, 13]: 40
Herbicidal efficacy against HORMU (HORMU: Hordeum murinum): 0
Herbicidal efficacy against MATIN [7]: 20
Herbicidal efficacy against SETVI (SETVI: Setaria viridis; [13]): 20
Herbicidal efficacy against STEME (STEME: Stellaria media [8]): 20

Cc1ccc2c(c1)[C@H](Nc1ncc([C@H](C)O)c(N)n1)[C@@H](C)C2 (racemic) [drawing 8, reference compound]
Herbicidal action against HORMU (HORMU: Hordeum murinum; dosage 320 g/ha): 20%
Herbicidal action against PHBPU (PHBPU: Ipomoea purpurea; dosage 320 g/ha): 20%

Cc1cc2c(s1)CCCC2Nc1ncc(C(C)(C)O)c(C)n1 (centres unmarked) [drawing 18, reference compound]
Herbicidal efficacy against ALOMY [5, 13]: 20
Herbicidal efficacy against AMARE [1]: 20
Herbicidal efficacy against ECHCG [6, 13]: 30
Herbicidal efficacy against HORMU (HORMU: Hordeum murinum): 10
Herbicidal efficacy against MATIN [7]: 20
Herbicidal efficacy against SETVI (SETVI: Setaria viridis; [13]): 20
Herbicidal efficacy against STEME (STEME: Stellaria media [8]): 30

Cc1ccc2c(c1)[C@H](Nc1ncc(C(C)(C)O)c(N)n1)[C@@H](C)C2 [drawing 4, reference compound]
Herbicidal action against ABUTH ([4]; dosage 80 g/ha): 20%
Herbicidal action against ABUTH ([4]; dosage 320 g/ha): 60%
Herbicidal action against ALOMY ([5]; pre-emergence, dosage 80 g/ha): 30%
Herbicidal action against ALOMY ([5]; pre-emergence, dosage 320 g/ha): 60%
Herbicidal action against AVEFA (AVEFA: Avena fatua; dosage 80 g/ha): 10 10%
Herbicidal action against AVEFA (AVEFA: Avena fatua; dosage 320 g/ha): 10 10%
Herbicidal action against ECHCG ([6]; pre-emergence, dosage 80 g/ha): 30%
Herbicidal action against LOLRI (LOLRI: Lolium rigidum; dosage 80 g/ha): 40%
Herbicidal action against SETVI (SETVI: Setaria viridis; pre-emergence, dosage 80 g/ha): 30%

Cc1ccc2c(c1)[C@H](Nc1ncc([C@H](C)O)c(N)n1)[C@@H](C)C2 (racemic) [drawing 5, reference compound]
Herbicidal action against AVEFA (AVEFA: Avena fatua; dosage 80 g/ha): 20%
Herbicidal action against AVEFA (AVEFA: Avena fatua; dosage 320 g/ha): 60%

Cc1ccc2c(c1)[C@H](Nc1ncc(C(C)O)c(C)n1)CCO2 (some centres unmarked) [Example 1.49]
Herbicidal action against AMARE ([1]; dosage 320 g/ha): 100%
Herbicidal action against MATIN [7]: 100%
Herbicidal action against POLCO ([2]; dosage 320 g/ha): 100%
Herbicidal action against VERPE (VERPE: Veronica persica): 100%
Herbicidal action against VIOTR (VIOTR: Viola tricolor): 100%
Herbicidal action against ABUTH [9]: 80%
Herbicidal action against AMARE [10]: 90%
Herbicidal action against ECHCG [11]: 80%
Herbicidal action against STEME (STEME: Stellaria media [3]; dosage 320 g/ha): 90%

C=CCCC(C)(O)c1cnc(N[C@H]2c3cc(C)ccc3C[C@@H]2C)nc1 (some centres unmarked) [Example 1.28]
Herbicidal action against AMARE ([1]; dosage 320 g/ha): 100%
Herbicidal action against MATIN [7]: 100%
Herbicidal action against POLCO ([2]; dosage 320 g/ha): 100%
Herbicidal action against VERPE (VERPE: Veronica persica): 100%
Herbicidal action against VIOTR (VIOTR: Viola tricolor): 100%

Cc1nc(NC2c3ccccc3CC2C)ncc1C(C)(C)O (mixture of isomers) [Example 1.51]
Herbicidal action against ABUTH ([4]; dosage 320 g/ha): 100%
Herbicidal action against ALOMY ([5]; pre-emergence, dosage 320 g/ha): 100%
Herbicidal action against AMARE ([1]; dosage 320 g/ha): 100%
Herbicidal action against AVEFA (AVEFA: Avena fatua; dosage 320 g/ha): 80%
Herbicidal action against ECHCG ([6]; pre-emergence, dosage 320 g/ha): 100%
Herbicidal action against HORMU (HORMU: Hordeum murinum; dosage 320 g/ha): 90%
Herbicidal action against LOLRI (LOLRI: Lolium rigidum; dosage 320 g/ha): 100%
Herbicidal action against MATIN [7]: 100%
Herbicidal action against PHBPU (PHBPU: Ipomoea purpurea; dosage 320 g/ha): 100%
Herbicidal action against POLCO ([2]; dosage 320 g/ha): 100%
Herbicidal action against SETVI (SETVI: Setaria viridis; pre-emergence, dosage 320 g/ha): 100%
Herbicidal action against STEME (STEME: Stellaria media [8]): 100%
Herbicidal action against VERPE (VERPE: Veronica persica): 100%
Herbicidal action against VIOTR (VIOTR: Viola tricolor): 100%

Cc1ccc2c(c1)[C@H](Nc1ncc(C(C)(C)O)c(C(C)F)n1)[C@@H](C)C2 (some centres unmarked) [Example 1.23]
Herbicidal action against ABUTH ([4]; dosage 320 g/ha): 100%
Herbicidal action against ALOMY ([5]; pre-emergence, dosage 320 g/ha): 100%
Herbicidal action against AMARE ([1]; dosage 320 g/ha): 100%
Herbicidal action against AVEFA (AVEFA: Avena fatua; dosage 320 g/ha): 100%
Herbicidal action against ECHCG ([6]; pre-emergence, dosage 320 g/ha): 100%
Herbicidal action against HORMU (HORMU: Hordeum murinum; dosage 320 g/ha): 80%
Herbicidal action against LOLRI (LOLRI: Lolium rigidum; dosage 320 g/ha): 100%
Herbicidal action against MATIN [7]: 100%
Herbicidal action against PHBPU (PHBPU: Ipomoea purpurea; dosage 320 g/ha): 100%
Herbicidal action against POLCO ([2]; dosage 320 g/ha): 100%
Herbicidal action against SETVI (SETVI: Setaria viridis; pre-emergence, dosage 320 g/ha): 100%
Herbicidal action against STEME (STEME: Stellaria media [8]): 100%
Herbicidal action against VERPE (VERPE: Veronica persica): 100%
Herbicidal action against VIOTR (VIOTR: Viola tricolor): 100%
